The record followed here is patent US9521850B2 (University of Florida Research Foundation, Incorporated, priority 2012, dated 2016).

One assay deals with Rhizobium etli. The experiment in a line: microbe, parasite or virus in culture. In kind it is cell-based.
The test system of a further assay is Liberibacter crescens. Briefly: microbe, parasite or virus in culture. In kind it is cell-based.
The subject of a further assay is Mesorhizobium loti. The experiment in a line: microbe, parasite or virus in culture. In kind it is cell-based.
The subject of another assay is Xanthomonas citri. Briefly: microbe, parasite or virus in culture. It counts as cell-based, Xanthomonas citri subsp. citri.
The subject of the next assay is A. tumefaciens. The experiment in a line: microbe, parasite or virus in culture. In kind it is cell-based. Particulars: Agrobacterium tumefaciens, 24 h.
The next assay has as its system Sinorhizobium meliloti. The experiment in a line: microbe, parasite or virus in culture. It counts as cell-based.
For the next assay, the system named is Bradyrhizobium japonicum. Briefly: microbe, parasite or virus in culture. In kind it is cell-based.
The next assay concerns the target SecA of Ca. L. asiaticus (Candidatus Liberibacter asiaticus, UniProt A0ABM5NFG5). Briefly: biochemical.
For assay [1], the system named is Agrobacterium tumefaciens. Briefly: microbe, parasite or virus in culture. In kind it is cell-based.
A further assay relates to CLAS populations. The experiment in a line: Effect on CLAS populations, mean Ct by quantitative PCR (Example 2).

≈ marks a conversion by molar mass, not a printed value.

As to `COc1cc(-c2cc(-c3ccccc3)nc3sc(C(=O)O)c(N)c23)cc(OC)c1OC` [Compound C17, 3-amino-6-phenyl-4-(3,4,5-trimethoxy-phenyl)thieno [2,3-b]pyridine-2-carboxylic acid], the MBC with Rhizobium etli (24 hrs) worked out at 64 µg/mL (≈ 147 µM); in the assay on Rhizobium etli (120 hrs), 64 µg/mL (≈ 147 µM); in the assay on Liberibacter crescens (24 h), 16 µg/mL (≈ 36.7 µM); against Liberibacter crescens (120 h), 32 µg/mL (≈ 73.3 µM); with Mesorhizobium loti, 32 µg/mL (≈ 73.3 µM); in the assay on Xanthomonas citri, 32 µg/mL (≈ 73.3 µM). The MBC stood at 256 µg/mL (≈ 586 µM) in the assay on A. tumefaciens; 32 µg/mL (≈ 73.3 µM) with Sinorhizobium meliloti; 32 µg/mL (≈ 73.3 µM) against Bradyrhizobium japonicum (24 hrs); 64 µg/mL (≈ 147 µM) against Bradyrhizobium japonicum (120 hrs); 64 µg/mL (≈ 147 µM) in assay [1]. Moreover, the MIC with Rhizobium etli (24 hrs) stood at 32 µg/mL (≈ 73.3 µM); against Rhizobium etli (120 hrs), 32 µg/mL (≈ 73.3 µM); in the assay with Liberibacter crescens (24 h), 16 µg/mL (≈ 36.7 µM); with Liberibacter crescens (120 h), 32 µg/mL (≈ 73.3 µM); against Mesorhizobium loti it was 16 µg/mL (≈ 36.7 µM); against Xanthomonas citri, 16 µg/mL (≈ 36.7 µM). The MIC with Sinorhizobium meliloti is 16 µg/mL (≈ 36.7 µM); in the assay with Bradyrhizobium japonicum (24 hrs) it was 16 µg/mL (≈ 36.7 µM); in the assay with Bradyrhizobium japonicum (120 hrs), 32 µg/mL (≈ 73.3 µM); in assay [1], 64 µg/mL (≈ 147 µM). Moreover, the IC50 on SecA of Ca. L. asiaticus turned out to be 920 nM.

`COc1ccc(NC(=O)C2(NC(=O)c3ccc(-n4cnnn4)cc3)CCCCC2)cc1` [Compound C18, N-(1-{[(4-methoxy-phenyl)amino]carbonyl}cyclo-hexyl)-4-(1H-tetrazol-1-yl)benzamide]: the MBC against Rhizobium etli (24 hrs) was determined as 16 µg/mL (≈ 38.1 µM); in the assay with Rhizobium etli (120 hrs), 32 µg/mL (≈ 76.1 µM); with Liberibacter crescens (24 h), 8 µg/mL (≈ 19 µM); in the assay with Liberibacter crescens (120 h), 16 µg/mL (≈ 38.1 µM); with Mesorhizobium loti it was 32 µg/mL (≈ 76.1 µM); against Xanthomonas citri, 32 µg/mL (≈ 76.1 µM). Besides, the MBC in the assay with A. tumefaciens is 256 µg/mL (≈ 609 µM); against Sinorhizobium meliloti, 64 µg/mL (≈ 152 µM); in the assay on Bradyrhizobium japonicum (24 hrs), 8 µg/mL (≈ 19 µM); in the assay on Bradyrhizobium japonicum (120 hrs) it was 16 µg/mL (≈ 38.1 µM); in [1], 128 µg/mL (≈ 304 µM). The MIC with Rhizobium etli (24 hrs) is 16 µg/mL (≈ 38.1 µM); in the assay with Rhizobium etli (120 hrs), 32 µg/mL (≈ 76.1 µM); against Liberibacter crescens (24 h) it was 8 µg/mL (≈ 19 µM); with Liberibacter crescens (120 h), 16 µg/mL (≈ 38.1 µM); against Mesorhizobium loti it was 16 µg/mL (≈ 38.1 µM); with Xanthomonas citri, 16 µg/mL (≈ 38.1 µM). Also, the MIC against Sinorhizobium meliloti amounted to 32 µg/mL (≈ 76.1 µM); against Bradyrhizobium japonicum (24 hrs), 8 µg/mL (≈ 19 µM); with Bradyrhizobium japonicum (120 hrs), 16 µg/mL (≈ 38.1 µM); in assay [1], 32 µg/mL (≈ 76.1 µM). This compound also registered an IC50 on SecA of Ca. L. asiaticus of 480 nM.

Consider `COc1ccc2nc(NC(=O)CSc3nc4cc(C)ccc4[nH]3)sc2c1` [Compound C19, N-(6-methoxy-1,3-benzo-thiazol-2-yl)-2-[(5-methyl-1H-benz-imidazol-2-yl)thio]acetamide], for which the MBC in the assay on Rhizobium etli (24 hrs) was found to be 32 µg/mL (≈ 83.2 µM); in the assay with Rhizobium etli (120 hrs), 64 µg/mL (≈ 166 µM); in the assay on Liberibacter crescens (24 h), 8 µg/mL (≈ 20.8 µM); with Liberibacter crescens (120 h), 16 µg/mL (≈ 41.6 µM); in the assay on Mesorhizobium loti it was 32 µg/mL (≈ 83.2 µM); in the assay on Xanthomonas citri it was 64 µg/mL (≈ 166 µM). For the same compound, the MBC came to 128 µg/mL (≈ 333 µM) in the assay on A. tumefaciens; 64 µg/mL (≈ 166 µM) in the assay with Sinorhizobium meliloti; 32 µg/mL (≈ 83.2 µM) in the assay with Bradyrhizobium japonicum (24 hrs); 64 µg/mL (≈ 166 µM) against Bradyrhizobium japonicum (120 hrs); 128 µg/mL (≈ 333 µM) in assay [1]. In addition, the MIC is 32 µg/mL (≈ 83.2 µM) in the assay with Rhizobium etli (24 hrs); 32 µg/mL (≈ 83.2 µM) against Rhizobium etli (120 hrs); 8 µg/mL (≈ 20.8 µM) with Liberibacter crescens (24 h); 16 µg/mL (≈ 41.6 µM) with Liberibacter crescens (120 h); 16 µg/mL (≈ 41.6 µM) against Mesorhizobium loti; 32 µg/mL (≈ 83.2 µM) in the assay with Xanthomonas citri. The MIC came to 32 µg/mL (≈ 83.2 µM) with Sinorhizobium meliloti, 32 µg/mL (≈ 83.2 µM) against Bradyrhizobium japonicum (24 hrs), 64 µg/mL (≈ 166 µM) with Bradyrhizobium japonicum (120 hrs) and 32 µg/mL (≈ 83.2 µM) in [1]. This compound also came in with an IC50 against SecA of Ca. L. asiaticus of 640 nM.

Take `O=C1CCCC2=C1C(c1cccs1)Nc1ccc(C(=O)c3ccccc3)cc1N2` (stereo not shown) [Compound C20, 7-benzoyl-11-(2-thienyl)-2,3,4,5,10,11-hexahydro-1H-diabenzo[b,e] [1,4]diazepin-1-one]: the MBC stood at 64 µg/mL (≈ 160 µM) in the assay with Rhizobium etli (24 hrs); 64 µg/mL (≈ 160 µM) with Rhizobium etli (120 hrs); 16 µg/mL (≈ 39.9 µM) against Liberibacter crescens (24 h); 32 µg/mL (≈ 79.9 µM) in the assay on Liberibacter crescens (120 h); 16 µg/mL (≈ 39.9 µM) in the assay on Mesorhizobium loti; 32 µg/mL (≈ 79.9 µM) against Xanthomonas citri. The MBC in the assay on A. tumefaciens is 256 µg/mL (≈ 639 µM); in the assay with Sinorhizobium meliloti, 16 µg/mL (≈ 39.9 µM); in the assay on Bradyrhizobium japonicum (24 hrs) it was 32 µg/mL (≈ 79.9 µM); in the assay with Bradyrhizobium japonicum (120 hrs), 64 µg/mL (≈ 160 µM); in assay [1], 128 µg/mL (≈ 320 µM). The MIC against Rhizobium etli (24 hrs) worked out at 32 µg/mL (≈ 79.9 µM); with Rhizobium etli (120 hrs), 32 µg/mL (≈ 79.9 µM); in the assay with Liberibacter crescens (24 h), 16 µg/mL (≈ 39.9 µM); against Liberibacter crescens (120 h), 32 µg/mL (≈ 79.9 µM); against Mesorhizobium loti, 8 µg/mL (≈ 20 µM); in the assay with Xanthomonas citri, 16 µg/mL (≈ 39.9 µM). Further, the MIC came out at 16 µg/mL (≈ 39.9 µM) against Sinorhizobium meliloti, 16 µg/mL (≈ 39.9 µM) against Bradyrhizobium japonicum (24 hrs), 16 µg/mL (≈ 39.9 µM) with Bradyrhizobium japonicum (120 hrs) and 32 µg/mL (≈ 79.9 µM) in [1]. On SecA of Ca. L. asiaticus, this compound registered a concentration for half-maximal inhibition (IC50) of 440 nM.

Turning to `CN(C)[C@@H]1C(O)=C(C(N)=O)C(=O)[C@@]2(O)C(O)=C3C(=O)c4c(O)cccc4[C@@](C)(O)[C@H]3[C@H](O)[C@@H]12` [Oxytetracycline, reference compound], the MBC in the assay with Rhizobium etli (24 hrs) came out at 4 µg/mL (≈ 8.69 µM); against Rhizobium etli (120 hrs), 4 µg/mL (≈ 8.69 µM); with Liberibacter crescens (120 h) it was 8 µg/mL (≈ 17.4 µM); in the assay with Bradyrhizobium japonicum (24 hrs), 4 µg/mL (≈ 8.69 µM); against Bradyrhizobium japonicum (120 hrs) it was 4 µg/mL (≈ 8.69 µM). The MIC was determined as 4 µg/mL (≈ 8.69 µM) in the assay with Rhizobium etli (24 hrs); 4 µg/mL (≈ 8.69 µM) against Rhizobium etli (120 hrs); 8 µg/mL (≈ 17.4 µM) against Liberibacter crescens (120 h); 4 µg/mL (≈ 8.69 µM) against Bradyrhizobium japonicum (24 hrs); 4 µg/mL (≈ 8.69 µM) with Bradyrhizobium japonicum (120 hrs). For the same compound, the “mean Ct value (CLAS populations)” value in the assay with CLAS populations (2 days after treatment) was 26.10 b; with CLAS populations (4 days after treatment) it was 25.61 b; in the assay with CLAS populations (Before treatment), 25.36 a.

For `COc1ccc(N(C(=O)c2ccc(-n3cnnn3)cc2)C2(C(=O)Nc3ccccc3C)CCCCC2)cc1` [SSC11, N-(4-methoxy-phenyl)-N-{1-[(2-methyl-phenyl)carbamoyl]cyclohexyl}-4-(1H-tetrazol-1-yl)benzamide], the MBC is 32 µg/mL (≈ 62.7 µM) against Rhizobium etli (24 hrs); 64 µg/mL (≈ 125 µM) against Rhizobium etli (120 hrs); 16 µg/mL (≈ 31.3 µM) in the assay on Liberibacter crescens (24 h); 32 µg/mL (≈ 62.7 µM) with Liberibacter crescens (120 h); 32 µg/mL (≈ 62.7 µM) against Mesorhizobium loti; 64 µg/mL (≈ 125 µM) against Xanthomonas citri. Further, the MBC was 64 µg/mL (≈ 125 µM) in the assay with Sinorhizobium meliloti, 16 µg/mL (≈ 31.3 µM) against Bradyrhizobium japonicum (24 hrs), 32 µg/mL (≈ 62.7 µM) against Bradyrhizobium japonicum (120 hrs) and 128 µg/mL (≈ 251 µM) in assay [1]. In addition, the MIC in the assay with Rhizobium etli (24 hrs) is 16 µg/mL (≈ 31.3 µM); in the assay with Rhizobium etli (120 hrs), 32 µg/mL (≈ 62.7 µM); with Liberibacter crescens (24 h) it was 16 µg/mL (≈ 31.3 µM); against Liberibacter crescens (120 h), 32 µg/mL (≈ 62.7 µM); with Mesorhizobium loti it was 16 µg/mL (≈ 31.3 µM); in the assay with Xanthomonas citri it was 32 µg/mL (≈ 62.7 µM). The MIC in the assay with Sinorhizobium meliloti was 32 µg/mL (≈ 62.7 µM); in the assay with Bradyrhizobium japonicum (24 hrs), 16 µg/mL (≈ 31.3 µM); with Bradyrhizobium japonicum (120 hrs) it was 32 µg/mL (≈ 62.7 µM); in [1], 32 µg/mL (≈ 62.7 µM).
